# Source: article PMC3307802 (MedChemComm, 2011)
# Columns and labels:
# [1] = biological target: T1, KOP receptors (Homo sapiens, UniProt P41145); conditions: cited from earlier work
# [2] = tested on: cocaine-induced drug-seeking; conditions: rats; dose of 0.3 mg/kg or greater; cited from earlier work
# [3] = tested on: humans; conditions: vaporized and inhaled; cited from earlier work
# [4] = tested on: serotonin 5HT2A receptors; conditions: cited from earlier work
# [5] = biological target: T1, KOP receptors; assay: biochemical; type: biochemical
# [6] = tested on: KOP receptor; conditions: cited from earlier work
# [7] = biological target: KOP receptor; conditions: cited from earlier work; remark: listed apart in the source
# [8] = biological target: T1, KOP receptors; type: binding
# [9] = tested on: KOP receptor; assay: Previously published potency/efficacy at KOP receptors; type: biochemical; conditions: relative to 1
# T1 sequence (P41145 whole entry): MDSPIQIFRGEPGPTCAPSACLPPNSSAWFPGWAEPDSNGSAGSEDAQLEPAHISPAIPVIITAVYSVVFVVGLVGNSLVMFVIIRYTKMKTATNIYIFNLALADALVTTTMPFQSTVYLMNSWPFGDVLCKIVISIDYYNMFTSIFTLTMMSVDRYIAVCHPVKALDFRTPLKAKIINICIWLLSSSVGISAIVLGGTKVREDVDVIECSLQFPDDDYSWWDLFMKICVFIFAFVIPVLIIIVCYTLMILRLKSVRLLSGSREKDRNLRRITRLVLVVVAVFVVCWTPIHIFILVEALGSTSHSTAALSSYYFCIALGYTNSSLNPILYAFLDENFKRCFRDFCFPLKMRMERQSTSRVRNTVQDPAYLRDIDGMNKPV
smiles,measurement,setting,value
"COC(=O)[C@@H]1C[C@H](OC(C)=O)C(=O)[C@H]2[C@@]1(C)CC[C@H]1C(=O)O[C@H](c3ccoc3)C[C@]21C [Compound 1, salvinorin A]",ED50 ± SD (κ),[1],40 ± 10 nM
same,effect on cocaine-primed reinstatement of drug seeking,[2],attenuate cocaine-primed reinstatement of drug seeking
same,active dose in humans (hallucinogen),[3],4.5 to 21 µg/kg
same,activity at serotonin 5HT2A receptors,[4],does not have activity
CCOCO[C@H]1C[C@@H](C(=O)OC)[C@]2(C)CC[C@H]3C(=O)O[C@H](c4ccoc4)C[C@]3(C)[C@H]2C1=O [Compound 4],EC50,[5],0.65 ± 0.17 nM
COC(=O)[C@@H]1C[C@H](O[C@@H]2CCCCO2)C(=O)[C@H]2[C@@]1(C)CC[C@H]1C(=O)O[C@H](c3ccoc3)C[C@]21C [Compound 5],EC50,[5],60 ± 6 nM
COC(=O)[C@@H]1C[C@H](O[C@@H]2CCCO2)C(=O)[C@H]2[C@@]1(C)CC[C@H]1C(=O)O[C@H](c3ccoc3)C[C@]21C [Compound 7a],EC50,[5],1220 ± 230 nM
same,fold less potent than 1 as agonist,[5],approximately 30 fold
COC(=O)[C@@H]1C[C@H](O[C@H]2CCCO2)C(=O)[C@H]2[C@@]1(C)CC[C@H]1C(=O)O[C@H](c3ccoc3)C[C@]21C [Compound 7b],EC50,[5],690 ± 80 nM
same,fold less potent than 1 as agonist,[5],~17 fold
CCOC(=O)O[C@H]1C[C@@H](C(=O)OC)[C@]2(C)CC[C@H]3C(=O)O[C@H](c4ccoc4)C[C@]3(C)[C@H]2C1=O [Compound 11],affinity at the KOP receptor vs. [3H]bremazocine,[6]; vs. [3H]bremazocine,no appreciable affinity
same,affinity at the KOP receptor vs. [3H]diprenorphine,[6]; vs. [3H]diprenorphine,no appreciable affinity
CCNC(=O)O[C@H]1C[C@@H](C(=O)OC)[C@]2(C)CC[C@H]3C(=O)O[C@H](c4ccoc4)C[C@]3(C)[C@H]2C1=O [Compound 12],EC50,[7]; read-out: KOP receptor potency EC50,> 1000 nM
COCO[C@H]1C[C@@H](C(=O)OC)[C@]2(C)CC[C@H]3C(=O)O[C@H](C(=O)N4CCCCC4)C[C@]3(C)[C@H]2C1=O [Compound 14],KOP binding affinity worse compared to 3,[8],roughly 31 fold
same,KOP receptor binding affinity improved over that of 15,[8],approximately 2 fold
same,EC50,[5],1930 ± 239 nM
same,fold less potent than 1 as agonist,[5],48 fold
same,fold less potent than 3 as agonist,[5],roughly 322 fold
same,improvement in potency over 15,[5],approximately 2.5 fold
"COC(=O)[C@@H]1C[C@H](OC(C)=O)C(=O)[C@H]2[C@@]1(C)CC[C@H]1C(=O)O[C@H](C(=O)N3CCCCC3)C[C@]21C [Compound 15, reference compound]",fold less potent than 1 as agonist (previously published analog),[9],approximately 125 fold
same,potency at KOP receptors ED50,[7],5110 ± 1800 nM
